The text below walks through data of PMC5513037, “Examining the influence of specificity ligands and ATP-competitive ligands on the overall effectiveness of bivalent kinase inhibitors” (Proteome Science, 2017).

Experiment in all cases: Dasatinib-matrix competition in K562 lysate
Holding throughout (details): residual binding 50 value; read-out: RB50 (the source's name)

The target in one experiment is T1, N-TAF1 (Homo sapiens, UniProt P21675).
T1 construct: endogenous in cells; host or cells: K562
T1 sequence (P21675 1-1895 isoform P21675-17): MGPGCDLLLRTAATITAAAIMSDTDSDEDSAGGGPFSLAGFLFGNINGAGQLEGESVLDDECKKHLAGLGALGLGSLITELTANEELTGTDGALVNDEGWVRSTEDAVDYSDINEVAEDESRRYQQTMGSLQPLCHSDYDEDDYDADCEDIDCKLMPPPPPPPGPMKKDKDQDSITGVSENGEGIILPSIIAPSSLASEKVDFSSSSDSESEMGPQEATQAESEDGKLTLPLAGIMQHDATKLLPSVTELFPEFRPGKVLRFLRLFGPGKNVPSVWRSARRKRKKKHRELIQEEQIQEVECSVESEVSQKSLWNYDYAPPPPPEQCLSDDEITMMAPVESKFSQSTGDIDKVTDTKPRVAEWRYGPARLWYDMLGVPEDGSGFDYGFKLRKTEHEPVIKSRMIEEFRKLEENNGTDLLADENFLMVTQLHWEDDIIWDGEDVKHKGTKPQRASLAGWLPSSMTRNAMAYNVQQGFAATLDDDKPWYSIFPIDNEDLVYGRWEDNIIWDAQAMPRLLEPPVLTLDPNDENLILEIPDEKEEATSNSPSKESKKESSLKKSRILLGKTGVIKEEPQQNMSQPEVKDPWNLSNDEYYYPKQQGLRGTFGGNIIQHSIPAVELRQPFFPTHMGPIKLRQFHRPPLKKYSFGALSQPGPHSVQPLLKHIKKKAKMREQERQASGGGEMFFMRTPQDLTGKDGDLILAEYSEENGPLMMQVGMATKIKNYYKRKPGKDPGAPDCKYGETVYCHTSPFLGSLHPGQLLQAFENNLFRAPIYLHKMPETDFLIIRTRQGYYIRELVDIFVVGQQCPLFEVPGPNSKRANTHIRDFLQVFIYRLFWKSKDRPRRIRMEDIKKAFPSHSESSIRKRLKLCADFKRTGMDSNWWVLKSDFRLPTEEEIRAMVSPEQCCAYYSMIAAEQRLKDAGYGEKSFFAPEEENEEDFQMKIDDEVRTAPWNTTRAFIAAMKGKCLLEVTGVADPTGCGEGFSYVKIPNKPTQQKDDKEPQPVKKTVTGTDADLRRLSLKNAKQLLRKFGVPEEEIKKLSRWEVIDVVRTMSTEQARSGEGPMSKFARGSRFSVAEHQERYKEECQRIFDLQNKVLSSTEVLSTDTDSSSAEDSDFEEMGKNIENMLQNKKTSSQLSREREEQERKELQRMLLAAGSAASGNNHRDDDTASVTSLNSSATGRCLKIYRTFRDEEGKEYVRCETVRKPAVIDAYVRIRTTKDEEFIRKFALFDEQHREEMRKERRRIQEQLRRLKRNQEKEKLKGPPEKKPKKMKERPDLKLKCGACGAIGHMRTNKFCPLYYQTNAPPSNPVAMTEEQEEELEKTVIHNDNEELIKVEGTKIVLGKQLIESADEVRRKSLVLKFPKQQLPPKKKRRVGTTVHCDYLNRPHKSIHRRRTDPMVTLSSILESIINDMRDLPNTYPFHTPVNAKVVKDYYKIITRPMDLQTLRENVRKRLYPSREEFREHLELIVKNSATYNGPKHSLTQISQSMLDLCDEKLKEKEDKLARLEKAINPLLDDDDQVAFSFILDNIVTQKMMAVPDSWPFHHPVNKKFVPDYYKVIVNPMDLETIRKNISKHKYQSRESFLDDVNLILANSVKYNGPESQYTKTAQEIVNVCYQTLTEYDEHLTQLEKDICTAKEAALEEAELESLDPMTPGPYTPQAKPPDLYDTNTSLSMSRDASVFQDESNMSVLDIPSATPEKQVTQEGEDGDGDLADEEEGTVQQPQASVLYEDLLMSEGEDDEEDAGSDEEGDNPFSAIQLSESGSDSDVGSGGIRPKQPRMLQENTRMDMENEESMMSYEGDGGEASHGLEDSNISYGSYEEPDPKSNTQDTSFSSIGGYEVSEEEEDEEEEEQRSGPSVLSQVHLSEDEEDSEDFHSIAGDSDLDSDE

Another experiment deals with T2, SMG1 (Homo sapiens, UniProt Q96Q15).
T2 construct: endogenous in cells; host or cells: K562

Another experiment concerns the target T3, TTN (Homo sapiens, UniProt Q8WZ42).
T3 construct: endogenous in cells; host or cells: K562

Another experiment concerns the target T4, TKT (Homo sapiens, UniProt P29401).
T4 construct: endogenous in cells; host or cells: K562

A further experiment deals with T5, ATR (Homo sapiens, UniProt Q13535).
T5 construct: endogenous in cells; host or cells: K562

The next experiment has as its target T6, TEX14 (Homo sapiens, UniProt Q8IWB6).
T6 construct: endogenous in cells; host or cells: K562

For another experiment, the target named is ATM (Homo sapiens, UniProt Q13315). More on the design: endogenous in cells; host or cells: K562.
Chain of ATM (Q13315 whole entry): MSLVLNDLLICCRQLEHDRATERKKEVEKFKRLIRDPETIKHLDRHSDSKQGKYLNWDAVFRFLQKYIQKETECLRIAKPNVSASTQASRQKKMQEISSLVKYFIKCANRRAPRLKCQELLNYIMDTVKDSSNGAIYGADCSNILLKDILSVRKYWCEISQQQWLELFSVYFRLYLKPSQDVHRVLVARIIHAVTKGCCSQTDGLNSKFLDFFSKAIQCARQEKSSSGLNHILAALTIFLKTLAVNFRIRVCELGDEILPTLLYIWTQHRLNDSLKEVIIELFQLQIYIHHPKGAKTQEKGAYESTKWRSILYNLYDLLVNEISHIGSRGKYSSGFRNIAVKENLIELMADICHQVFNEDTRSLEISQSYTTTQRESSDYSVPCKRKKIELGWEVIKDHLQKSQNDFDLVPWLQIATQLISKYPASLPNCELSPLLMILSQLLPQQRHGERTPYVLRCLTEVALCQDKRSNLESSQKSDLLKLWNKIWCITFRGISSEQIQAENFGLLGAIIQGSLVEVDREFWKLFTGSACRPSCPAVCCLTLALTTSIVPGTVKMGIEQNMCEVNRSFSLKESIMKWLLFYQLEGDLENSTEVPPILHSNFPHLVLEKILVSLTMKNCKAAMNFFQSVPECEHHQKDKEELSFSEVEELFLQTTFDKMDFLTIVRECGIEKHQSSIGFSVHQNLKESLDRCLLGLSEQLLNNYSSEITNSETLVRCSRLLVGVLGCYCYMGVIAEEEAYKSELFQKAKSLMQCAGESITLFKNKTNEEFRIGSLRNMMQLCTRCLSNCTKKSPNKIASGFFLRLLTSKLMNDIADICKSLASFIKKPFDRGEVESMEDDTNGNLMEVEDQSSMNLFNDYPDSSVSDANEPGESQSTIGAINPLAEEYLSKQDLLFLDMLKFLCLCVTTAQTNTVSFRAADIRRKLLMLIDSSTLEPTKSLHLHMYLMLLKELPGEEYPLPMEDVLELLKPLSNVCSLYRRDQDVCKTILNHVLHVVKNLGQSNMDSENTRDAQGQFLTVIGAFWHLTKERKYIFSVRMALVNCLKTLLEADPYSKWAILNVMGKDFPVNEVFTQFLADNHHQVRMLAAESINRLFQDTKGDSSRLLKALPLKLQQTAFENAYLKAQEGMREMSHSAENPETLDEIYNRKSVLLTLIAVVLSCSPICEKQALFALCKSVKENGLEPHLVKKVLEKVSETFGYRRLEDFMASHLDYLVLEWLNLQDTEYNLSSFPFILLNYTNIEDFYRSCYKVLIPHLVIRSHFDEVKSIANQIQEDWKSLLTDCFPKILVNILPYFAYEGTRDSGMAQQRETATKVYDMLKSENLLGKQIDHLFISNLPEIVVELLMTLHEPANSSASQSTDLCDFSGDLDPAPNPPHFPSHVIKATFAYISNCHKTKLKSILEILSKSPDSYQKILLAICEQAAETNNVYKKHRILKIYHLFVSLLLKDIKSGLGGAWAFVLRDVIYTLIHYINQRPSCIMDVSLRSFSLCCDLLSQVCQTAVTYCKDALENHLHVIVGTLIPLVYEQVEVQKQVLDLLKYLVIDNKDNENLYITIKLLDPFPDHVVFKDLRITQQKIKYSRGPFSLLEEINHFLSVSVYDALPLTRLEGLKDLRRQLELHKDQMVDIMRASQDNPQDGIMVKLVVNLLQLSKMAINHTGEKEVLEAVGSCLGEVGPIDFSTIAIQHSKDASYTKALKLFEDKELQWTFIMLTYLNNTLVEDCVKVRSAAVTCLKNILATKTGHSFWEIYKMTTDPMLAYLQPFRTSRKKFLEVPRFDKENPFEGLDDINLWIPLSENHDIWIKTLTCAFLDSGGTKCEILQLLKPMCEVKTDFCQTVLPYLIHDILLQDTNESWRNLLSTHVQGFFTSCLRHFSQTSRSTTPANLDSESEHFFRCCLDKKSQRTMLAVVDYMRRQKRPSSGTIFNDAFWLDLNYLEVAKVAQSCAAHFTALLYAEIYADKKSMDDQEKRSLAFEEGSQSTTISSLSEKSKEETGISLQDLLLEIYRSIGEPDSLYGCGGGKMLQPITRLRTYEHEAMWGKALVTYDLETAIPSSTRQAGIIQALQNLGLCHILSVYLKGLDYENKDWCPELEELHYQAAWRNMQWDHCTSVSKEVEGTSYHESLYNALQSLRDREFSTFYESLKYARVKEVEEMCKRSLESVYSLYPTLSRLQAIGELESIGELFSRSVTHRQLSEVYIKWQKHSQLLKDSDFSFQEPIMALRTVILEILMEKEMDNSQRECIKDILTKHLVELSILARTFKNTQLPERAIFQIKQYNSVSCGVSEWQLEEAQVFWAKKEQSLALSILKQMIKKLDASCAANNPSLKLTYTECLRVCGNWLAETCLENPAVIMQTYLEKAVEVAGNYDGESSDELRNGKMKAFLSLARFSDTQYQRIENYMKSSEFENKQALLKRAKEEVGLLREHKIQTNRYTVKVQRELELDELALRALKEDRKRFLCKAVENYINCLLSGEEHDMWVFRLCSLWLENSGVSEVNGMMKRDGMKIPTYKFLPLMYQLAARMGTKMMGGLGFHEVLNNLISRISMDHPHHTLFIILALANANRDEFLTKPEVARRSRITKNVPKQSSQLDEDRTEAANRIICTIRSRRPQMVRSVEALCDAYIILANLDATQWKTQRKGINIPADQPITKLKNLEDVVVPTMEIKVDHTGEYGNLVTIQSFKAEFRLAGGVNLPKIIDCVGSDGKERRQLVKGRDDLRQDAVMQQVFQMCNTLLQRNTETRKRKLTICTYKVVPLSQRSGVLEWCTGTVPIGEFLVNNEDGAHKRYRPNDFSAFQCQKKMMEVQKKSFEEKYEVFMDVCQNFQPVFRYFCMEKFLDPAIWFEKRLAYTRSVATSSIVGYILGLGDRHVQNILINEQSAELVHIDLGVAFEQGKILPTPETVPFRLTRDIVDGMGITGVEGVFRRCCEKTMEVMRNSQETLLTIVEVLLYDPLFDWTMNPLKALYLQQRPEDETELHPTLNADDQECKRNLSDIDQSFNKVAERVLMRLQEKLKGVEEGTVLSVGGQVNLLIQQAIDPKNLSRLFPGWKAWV
For the next experiment, the target named is T7, OBSCN (Homo sapiens, UniProt Q5VST9).
T7 construct: endogenous in cells; host or cells: K562

A further experiment concerns the target T8, PIK3R4 (Homo sapiens, UniProt Q99570).
T8 construct: endogenous in cells; host or cells: K562

The target in the next experiment is T9, SPEG (Homo sapiens, UniProt Q15772).
T9 construct: endogenous in cells; host or cells: K562

Each structure is given as a SMILES string. Where only a bound is given, the exact number is not on record here.

As for `Cc1nc(Nc2ncc(C(=O)Nc3c(C)cccc3Cl)s2)cc(N2CCN(CCO)CC2)n1` [Dasatinib], the IC50 is 9.66 µM on N-TAF1; greater than 10 µM on SMG1; greater than 10 µM on TTN; greater than 10 µM on TKT; greater than 10 µM at ATR; greater than 10 µM at TEX14. The IC50 at ATM, on OBSCN, on PIK3R4 and at SPEG was greater than 10 µM throughout.
